One test addresses Translocator protein (Homo sapiens, UniProt P30536). In words: Binding affinity to TSPO (unknown origin).
Test [1] deals with Sigma intracellular receptor 2 (Homo sapiens, UniProt Q5BJF2). In words: Binding affinity to sigma 2 receptor (unknown origin).
Test [2] has as its target Beta-3 adrenergic receptor (Homo sapiens, UniProt P13945). In words: Binding affinity to beta3 adrenergic receptor (unknown origin).
The target of test [3] is 5-hydroxytryptamine receptor 7 (Homo sapiens, UniProt P34969). Kind of test: Binding affinity to 5HT-7A receptor (unknown origin).

A word on the Ki: it is a dissociation constant, usually derived from enzyme kinetics or from competition with a known ligand.

Sequence of Translocator protein (P30536 whole entry): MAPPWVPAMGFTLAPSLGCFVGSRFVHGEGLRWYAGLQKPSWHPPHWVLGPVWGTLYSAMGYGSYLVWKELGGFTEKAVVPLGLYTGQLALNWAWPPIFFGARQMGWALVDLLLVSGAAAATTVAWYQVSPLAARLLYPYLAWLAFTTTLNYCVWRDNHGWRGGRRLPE
Sequence of 5-hydroxytryptamine receptor 7 (P34969 whole entry): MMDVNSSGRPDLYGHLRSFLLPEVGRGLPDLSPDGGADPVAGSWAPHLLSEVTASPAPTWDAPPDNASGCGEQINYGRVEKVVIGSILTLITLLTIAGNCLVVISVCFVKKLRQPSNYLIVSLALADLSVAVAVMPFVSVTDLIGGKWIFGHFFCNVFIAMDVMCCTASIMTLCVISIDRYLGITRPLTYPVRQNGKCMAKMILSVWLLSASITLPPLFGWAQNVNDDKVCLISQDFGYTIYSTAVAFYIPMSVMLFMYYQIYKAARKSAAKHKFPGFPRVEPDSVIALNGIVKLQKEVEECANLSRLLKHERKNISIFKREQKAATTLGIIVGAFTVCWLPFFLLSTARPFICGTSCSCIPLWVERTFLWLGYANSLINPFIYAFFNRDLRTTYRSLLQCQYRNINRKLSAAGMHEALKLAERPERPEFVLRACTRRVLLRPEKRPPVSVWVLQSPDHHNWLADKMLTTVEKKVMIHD
Sequence of Beta-3 adrenergic receptor (P13945 whole entry): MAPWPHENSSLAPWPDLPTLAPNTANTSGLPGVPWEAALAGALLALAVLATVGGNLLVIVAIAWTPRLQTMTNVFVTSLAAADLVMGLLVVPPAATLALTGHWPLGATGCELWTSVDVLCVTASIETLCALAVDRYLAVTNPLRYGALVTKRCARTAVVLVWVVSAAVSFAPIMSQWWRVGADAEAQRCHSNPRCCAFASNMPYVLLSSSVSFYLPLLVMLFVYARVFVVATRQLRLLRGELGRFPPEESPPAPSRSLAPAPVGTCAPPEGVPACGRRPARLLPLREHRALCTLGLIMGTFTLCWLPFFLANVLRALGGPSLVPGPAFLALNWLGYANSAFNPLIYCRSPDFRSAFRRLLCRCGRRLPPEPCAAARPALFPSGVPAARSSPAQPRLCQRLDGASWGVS
Sequence of Sigma intracellular receptor 2 (Q5BJF2 whole entry): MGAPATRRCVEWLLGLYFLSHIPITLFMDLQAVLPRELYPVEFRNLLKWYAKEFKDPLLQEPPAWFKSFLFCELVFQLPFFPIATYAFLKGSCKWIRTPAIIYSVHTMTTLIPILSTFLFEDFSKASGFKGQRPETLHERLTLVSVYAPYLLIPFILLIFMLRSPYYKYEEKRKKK

`CC(C)(C)Cc1c(C#Cc2ccccc2F)sc(N)c1C(=O)c1ccc(Cl)cc1`: the inhibitory constant (Ki) was 560 nM on Translocator protein, 1400 nM in test [1], 3500 nM in test [2] and 5700 nM in test [3].
